In one data set the test system is cotton aphid (Aphis gossypii). As to the kind of experiment: Cotton aphid test in the same manner, more definitive percent mortality at selected rates and exposure times (Table 3). In kind it is in vivo. The note with it: 100 ppm; 72 hours exposure. As for the experimental part:
The compounds of formula I useful in the present invention were tested for insecticidal activity by observing mortality in a population of cotton aphid (Aphis gossypii) on treated cotton plants caused by a test compound, when compared to like populations of cotton aphid on untreated plants. These tests were conducted in the following manner:
For each rate of application of test compound, two seven-to-ten days old cotton seedlings (Gossypium hirsutium) grown in 7.6 cm diameter pots were selected for the test. Each test plant was infested with about 120 adult cotton aphids by placing onto each test plant cuttings of leaves from cotton plants grown in a cotton aphid colony. Once infested, the test plants were maintained for up to about 12 hours to allow complete translocation of the aphids onto the test plant. A solution comprising 1000 part per million (ppm) of each test compound was prepared by dissolving 10 milligrams of the test compound in 1 mL of acetone. Each solution was then diluted with 9 mL of a solution of 0.03 mL of polyoxyethylene(10) isooctylphenyl ether in 100 mL of water. About 2.5 mL of solution of each test compound was needed to spray each replicate of test plant (5 mL total for each test compound). If needed, the solution of 1000 ppm of test compound was serially diluted with a solution of 10% acetone and 300 ppm of polyoxyethylene(10) isooctylphenyl ether in water to provide solutions of each test compound for lower rates of application, for example, 300 ppm, 100 ppm, 30 ppm, or 10 ppm. Each replicate of test plant was sprayed with the solutions of test compound until run-off on both the upper and lower surfaces of the leaves. All the test plants were sprayed using a DeVilbus Atomizer Model 152 (Sunrise Medical, Carlsbad, Calif.) at a pressure of about 0.63-0.74 kilogram per square centimeter from a distance of about 30.5 centimeters from the test plants. For comparison purposes, a solution of a standard, such as amitraz or demethylchlordimeform (DCDM), prepared in a manner analogous to that set forth above, as well as a solution of 10% acetone and 300 ppm of polyoxyethylene(10) isooctylphenyl ether in water containing no test compound were also sprayed onto test plants. Upon completion of spraying the solutions of test compound, the solution of standard, and the solution containing no test compound, the plants were allowed to dry. […] After this time, each plant was assessed for percent mortality caused by the test compound when compared to the population of aphids that was infested onto the test plants prior to treatment with test compound. […] If there was 75% mortality or greater of the cotton aphid, a test compound was designated as being more insecticidally active (A).
In a test conducted in the same manner as set forth above, certain compounds of formula I were tested to determine a more definitive percent mortality of cotton aphid.
As for `CC(=O)c1ccc2c(c1)C(N1CCN(C)CC1)Cc1ccccc1S2` (stereo not drawn) [Compound 115], the “Percent Mortality of Cotton Aphid on Cotton Plants” value (“Percent Mortality of Cotton Aphid” below) amounted to 93%.
Consider `CN1CCN(C2Cc3ccccc3Sc3cccc(C4CC4)c32)CC1` (stereo not drawn) [Compound 112], for which the “Percent Mortality of Cotton Aphid” value is reported as 92%.
The same measure, in the same setting: then `COc1cccc2c1Sc1ccccc1CC2N1CCN(C)CC1` (stereo not drawn) [Compound 102], with 33%; and `CN1CCN(C2Cc3ccc(F)cc3Sc3ccc(C(F)(F)F)cc32)CC1.O=C(O)/C=C\C(=O)O.O=C(O)/C=C\C(=O)O` (stereo not drawn) [Compound 125], with 90%; and `CN1CCN(C2Cc3cc(Cl)ccc3Sc3cc(Cl)ccc32)CC1` (stereo not drawn) [Compound 92], with 48%.
On the same count and under the same terms, then `CC(C)c1ccc2c(c1)C(N1CCN(C)CC1)Cc1ccc(F)cc1S2.O=C(O)/C=C\C(=O)O` (stereo not drawn) [Compound 128], with 95%.
Consider `CSc1ccc2c(c1)C(N1CCN(C)CC1)Cc1ccc(F)cc1S2` (stereo not drawn) [Compound 123], for which the “Percent Mortality of Cotton Aphid” value was 96%.
Consider `CN1CCN(C2Cc3ccccc3Sc3ccc(C4CCCC4)cc32)CC1` (stereo not drawn) [Compound 113], for which the “Percent Mortality of Cotton Aphid” value was determined as 78%.
`CCSc1ccc2c(c1)C(N1CCN(C)CC1)Cc1ccc(F)cc1S2` (stereo not drawn) [Compound 124]: the “Percent Mortality of Cotton Aphid” value turned out to be 95%.
With `CN1CCC(=C2c3ccccc3COc3ccccc32)CC1.Cl` [Compound 26], the “Percent Mortality of Cotton Aphid” value was found to be 84%.
Turning to `CN1CCN(C2Cc3ccc(F)cc3Sc3ccccc32)CC1` (stereo not drawn) [Compound 119], the “Percent Mortality of Cotton Aphid” value is listed as 85%.
As to `Cc1cc2c(cc1F)Sc1ccccc1CC2N1CCN(C)CC1` (stereo not drawn) [Compound 111], the “Percent Mortality of Cotton Aphid” value is reported as 94%.
Same read-out and setting: then `CN1CCC(=C2c3ccccc3Oc3ccc(F)cc32)CC1` [Compound 9], with 26%; and `CCOC(=O)CCN1CCC(=C2c3ccccc3Oc3ccccc32)CC1` [Compound 20], with 37%; and `CN1CCN(C2Cc3ccccc3Sc3c(F)ccc(F)c32)CC1` (stereo not drawn) [Compound 97], with 65%.

Still in this data set, the particulars now being: 100 ppm; 96 hours exposure.
In the case of `CC(C)N1CCC(=C2c3ccccc3Sc3ccccc32)CC1` [Compound 3], the “Percent Mortality of Cotton Aphid” value was 80%.
For `CN1CCC(=C2c3ccccc3Oc3ccc(C(F)(F)F)cc32)CC1` [Compound 15], the “Percent Mortality of Cotton Aphid” value came to 28%.
Consider `CN1CCC(=C2c3ccccc3Oc3c(F)cccc32)CC1` [Compound 11], for which the “Percent Mortality of Cotton Aphid” value is reported as 42%.

Staying with this data set, now noted: 100 ppm; 168 hours exposure.
Regarding `CN1CCN(C2Cc3ccccc3Oc3c(Cl)cc(Cl)cc32)CC1` (stereo not drawn) [Compound 83], the “Percent Mortality of Cotton Aphid” value is listed as 41%.
Same read-out and setting: then `C=Cc1ccc2c(c1)C(N1CCN(C)CC1)Cc1ccccc1O2` (stereo not drawn) [Compound 78], with 53%.
The same measure, in the same setting: with `C[N+]1([O-])CCN(C2Cc3ccccc3Sc3ccc(OC(F)(F)F)cc32)CC1` (stereo not drawn) [Compound 107] the figure was 82%; with `CN1CCN(C2Cc3ccccc3Oc3ccc(C(F)(F)F)cc32)CC1` (stereo not drawn) [Compound 69], 69%.
On the same count and under the same terms, then `C#Cc1ccc2c(c1)C(N1CCN(C)CC1)Cc1ccccc1O2` (stereo not drawn) [Compound 79], with 35%.
As for `CCc1ccc2c(c1)C(N1CCN(C)CC1)Cc1ccccc1S2.O=S(=O)(O)O` (stereo not drawn) [Compound 98], the “Percent Mortality of Cotton Aphid” value is 90%.
For the molecule `CN1CCN(C2Cc3ccccc3Oc3ccc(Cl)cc32)CC1` (stereo not drawn) [Compound 64], the “Percent Mortality of Cotton Aphid” value came out at 74%.
For the molecule `CN1CCN(C2=Nc3ccccc3Sc3ccc(OC(F)(F)F)cc32)CC1` [Compound 194], the “Percent Mortality of Cotton Aphid” value is listed as 51%.
`CN1CCN(C2Cc3ccccc3Oc3cc(Cl)c(Cl)cc32)CC1` (stereo not drawn) [Compound 82]: the “Percent Mortality of Cotton Aphid” value was determined as 98%.
In the case of `CN1CCN(C2Cc3ccccc3Oc3ccc(SC(F)(F)F)cc32)CC1` (stereo not drawn) [Compound 75], the “Percent Mortality of Cotton Aphid” value was found to be 86%.
The same measure, in the same setting: then `CN1CCCN(C2Cc3ccccc3Oc3ccc(OC(F)(F)F)cc32)CC1` (stereo not drawn) [Compound 186], with 100%; and `CSc1ccc2c(c1)C(N1CCN(C)CC1)Cc1ccccc1O2` (stereo not drawn) [Compound 70], with 57%; and `CN1CCN(C2Cc3ccccc3Oc3ccc(I)cc32)CC1` (stereo not drawn) [Compound 67], with 75%.
With `Cc1cc(Br)cc2c1Oc1ccccc1CC2N1CCN(C)CC1` (stereo not drawn) [Compound 89], the “Percent Mortality of Cotton Aphid” value is given as 55%.
For the molecule `CN1CCN(C2Cc3ccccc3Oc3ccc(OC(F)(F)F)cc32)CC1` (stereo not drawn) [Compound 71], the “Percent Mortality of Cotton Aphid” value is on record as 100%.
Consider `C[N+]1([O-])CCN(C2Cc3ccccc3Oc3ccc(OC(F)(F)F)cc32)CC1` (stereo not drawn) [Compound 72], for which the “Percent Mortality of Cotton Aphid” value amounted to 100%.
With `CN1CCN(C2Cc3ccccc3Oc3ccc(Br)cc32)CC1` (stereo not drawn) [Compound 65], the “Percent Mortality of Cotton Aphid” value worked out at 100%.
On to `CN1CCN(C2Cc3ccccc3Oc3ccc(F)cc32)CC1` (stereo not drawn) [Compound 66], for which the “Percent Mortality of Cotton Aphid” value is on record as 61%.
For `CN1CCN(C2Cc3ccc(F)cc3Sc3ccc(OC(F)(F)F)cc32)CC1` (stereo not drawn) [Compound 126], the “Percent Mortality of Cotton Aphid” value is recorded as 100%.
Consider `CN1CCN(C2Cc3ccccc3Oc3c(F)cc(Br)cc32)CC1` (stereo not drawn) [Compound 88], for which the “Percent Mortality of Cotton Aphid” value came to 35%.

Still in this data set, the particulars now being: 300 ppm; 72 hours exposure.
Regarding `CCN(CC)CCOC1Cc2ccccc2Sc2ccc(OC(F)(F)F)cc21` (stereo not drawn) [Compound 52], the “Percent Mortality of Cotton Aphid” value came to 100%.

The same data set, now with this note: 300 ppm; 168 hours exposure.
On to `CN1CCN(C2Cc3ccccc3Sc3c2ccc(Cl)c3Cl)CC1.O=C(O)/C=C\C(=O)O` (stereo not drawn) [Compound 110], for which the “Percent Mortality of Cotton Aphid” value is 65%.
As for `CN1CCN(C2Cc3ccccc3Sc3c(F)cc(Cl)cc32)CC1.O=S(O)S(=O)(=O)O` (stereo not drawn) [Compound 96], the “Percent Mortality of Cotton Aphid” value came to 100%.

Still in this data set, the particulars now being: 500 ppm; 72 hours exposure.
As to `COc1ccc2c(c1)N(CCCN(C)C)c1ccccc1S2` [Compound 205], the “Percent Mortality of Cotton Aphid” value amounted to 40%.
With `Cl.Cl.OCCN1CCN(CCCN2c3ccccc3Sc3ccc(C(F)(F)F)cc32)CC1` [Compound 208], the “Percent Mortality of Cotton Aphid” value is 43%.

Staying with this data set, now noted: 1000 ppm; 72 hours exposure.
Take `CN1CCN(C2Cc3cc(F)ccc3Sc3ccc(Cl)cc32)CC1` (stereo not drawn) [Compound 121]: the “Percent Mortality of Cotton Aphid” value is on record as 65%.
On to `CSc1ccc2c(c1)C(N1CCN(C)CC1)Cc1ccccc1S2.O=C(O)/C=C\C(=O)O` (stereo not drawn) [Compound 103], for which the “Percent Mortality of Cotton Aphid” value came to 90%.
For the molecule `CN1CCN(C2Cc3ccccc3Sc3cc(F)c(Cl)cc32)CC1` (stereo not drawn) [Compound 95], the “Percent Mortality of Cotton Aphid” value worked out at 82%.
Same read-out and setting: then `CN1CCN(CCCN2c3ccccc3Sc3ccc(C(F)(F)F)cc32)CC1.Cl.Cl` [Compound 207], with 25%.

Still in this data set, the particulars now being: 1000 ppm; 96 hours exposure.
`CN1CCN(C2Cc3ccccc3Sc3ccc(C(F)(F)F)cc32)CC1` (stereo not drawn) [Compound 105]: the “Percent Mortality of Cotton Aphid” value was found to be 85%.
Still for that read-out and setting: with `CSc1ccc2c(c1)C(N1CCN(Cc3ccncc3)CC1)Cc1ccccc1S2` (stereo not drawn) [Compound 173] the figure was 82%.

Staying with this data set, now noted: 1000 ppm; 168 hours exposure.
As for `CN1CCN(C2Cc3ccccc3Sc3ccc(OC(F)(F)C(F)F)cc32)CC1` (stereo not drawn) [Compound 109], the “Percent Mortality of Cotton Aphid” value worked out at 100%.
Same read-out and setting: then `CN1CCCN(C2Cc3ccccc3Sc3ccc(OC(F)(F)F)cc32)CC1` (stereo not drawn) [Compound 185], with 100%; and `CN1CCN(C2Cc3ccc(F)cc3Sc3ccc(OC(F)(F)F)cc32)CC1` (stereo not drawn) [Compound 108], with 100%; and `CN1CCN(C2Cc3ccccc3Oc3ccc(C#C[Si](C)(C)C)cc32)CC1` (stereo not drawn) [Compound 80], with 83%.
As to `CSc1ccc2c(c1)C(N1CCCN(C)CC1)Cc1ccccc1S2` (stereo not drawn) [Compound 183], the “Percent Mortality of Cotton Aphid” value stood at 100%.
As to `CN1CCN(C2Cc3ccccc3Oc3c(F)cc(Cl)cc32)CC1` (stereo not drawn) [Compound 85], the “Percent Mortality of Cotton Aphid” value was 92%.
As for `CN1CCN(C2Cc3ccccc3Oc3c(Cl)cc(F)cc32)CC1` (stereo not drawn) [Compound 87], the “Percent Mortality of Cotton Aphid” value is given as 97%.
Regarding `CN1CCN(C2Cc3ccccc3Sc3ccccc32)CC1.O=C(O)/C=C\C(=O)O` (stereo not drawn) [Compound 90], the “Percent Mortality of Cotton Aphid” value is 74%.

Values taken from patent US20060111342A1, “Insecticidal tricyclic derivatives” (priority 2002, published 2006).
